Results: patent US20130244875A1, “METHODS AND COMPOSITIONS FOR IMPROVING PLANT HEALTH” (priority 2006, published 2013)
Values joined by “and” are separate entries in the source; they are usually repeats but may differ in a detail not shown here. Identical values can stand only once.

What was measured:
Type in all cases: in vivo
soybean plants [1] = assay: Ozone tolerance of soybeans; conditions: 0.5 lbs/A DCSA about 72 hours before, 10 hours
Experimental: Many plants are sensitive to ozone (O3), soybeans are particularly sensitive to ozone damage and show leaf flecking and chlorosis. Ozone can be produced in the atmosphere by a photochemical process in air polluted environments. Soybean production can be affected by ozone when soybeans are cultivated near urban areas or air pollution from urban areas is distributed to agricultural areas where soybeans are grown. An experiment was conducted to determine if DCSA treatment of soybean plants will provide tolerance to oxidative stress caused by ozone. Soybeans were treated with 0.5 lbs/A DCSA approximately 72 hours before exposure to ozone. Controls had no DCSA treatment. Four plants were treated with ozone in one 72 quart sterilite container with a clear plexiglass lid. Ozone was generated at 2 concentrations in the container with the plants at a low rate (2.8 ppm, parts per million) or a high rate (770 ppm) and the plants exposed for 10 hours at these concentrations. Light levels at plant height were ˜400μ Einsteins m-2 s-1, enough to insure photosynthesis. Air in the container was mixed using a small fan to insure proper exposure. Plants were removed from the treatment container and placed in a growth chamber to observe symptom development.

soybean seeds = assay: Soybean seed germination in DCSA solution; design: key: 1—low; 2—moderate; 3—high; 3+—exceptionally high; conditions: N=8
Experimental: Rapid seed germination is an important agronomic trait that reduces crop losses due to seed rot especially under cool wet conditions. Soybeans seeds of three varieties were germinated in a solution of 1, 10, or 100 μM DCSA or water at normal temperature (22° C.) or cool temperature (15° C.) and rated for seed germination at 1DAT (1 day after treatment) and 2DAT (2 days after treatment) at 22° C. or 4DAT (days after treatment) at 15° C. The germination rate was scored as 1—low, 2—moderate, 3—high for each treatment, 3+—exceptionally high, N=8.

Meloidogyne incognita = assay: Control of cotton root knot nematode (RKN) by DCSA
Experimental: DCSA was unexpectedly found to control RKN gall formation, improve plant height and reduce number of eggs produced by the nematode in cotton plants (ST474) (Table 5). Ten to fourteen days old cotton plants were treated with DCSA at the rate of 1 lb/A, 24 hrs before inoculating them with RKN eggs. […] Plant height, gall rating, and egg counts were measured 45 days after inoculation. The gall rating scale was 0-5 with 0=no visible galling and 5=heavy galling.

[2] = test system: Xanthomonas campestris pv. malvacearum; assay: Bacterial blight inoculation of cotton plants after DCSA spray; conditions: two-week old cotton; DCSA spray 24 hours before tooth pick inoculation; unsprayed plants developed necrotic spots
Experimental: In this example, two-week old cotton plants were sprayed with DCSA while control plants received spray application of water only. The plants were inoculated with bacterial blight pathogen (Xanthomonas campestris pv. malvacearum) about 24 hours after the DCSA spray application using a tooth pick inoculation method. As shown in the FIG. 4, the cotton plants inoculated with the bacterial pathogen but not sprayed with DCSA developed necrotic spots, typical symptoms of bacterial blight. […] The results of this experiment indicate that DCSA application reduced bacterial infection on cotton plants when inoculated with bacterial pathogen 24 hours after the DCSA spray.

soybean plants [3] = assay: Drought tolerance of soybean plants; conditions: for Root gdwt / Leaf gdwt / Leaf gfwt / Root gfwt: variety 2 under drought stress; for Root gdwt / Leaf gdwt: dry weight; for Root gdwt: surfactant 1.16; for Leaf gdwt: surfactant 2.37; for Leaf gfwt / Root gfwt: fresh weight; for Leaf gfwt: surfactant 8.01; for Root gfwt: surfactant 12.88
Experimental: Drought tolerance is an important agronomic trait. […] Soybean seeds of two varieties (1 and 2) were planted in soil in 4.5 inch pots, 3 seeds per pot. The seeds were germinated and plants grown to the V1 or V2 growth stage. DCSA was prepared (0.36 grams/60 milliliters in 20 percent acetone with 10 percent surfactant) and the plants sprayed with the DCSA solution at a rate equal to 0.5 pounds/Acre (lb/A) or 1.0 (lb/A) at day 0 or day 3 of the experiment. Water was withheld at day 0. The plants were rated on a scale of 1-4 for drought symptoms; 1—no symptoms; 2—minor symptoms, leaf curling and wilting; 3—substantial symptoms and wilting; 4—dead. The treatments were surfactant only, 0.5 lb/A DCSA, and 1.0 lb/A DCSA. The plants were treated with a surfactant or a DCSA solution, water withheld, and drought symptoms rated 2 days after treatment (2DAT), 3 days after treatment (3DAT), and 3DAT after rehydration (water added to soil saturation and plant recovery from drought symptoms measured). Fresh leaf weight (leaf grams fresh weight, leaf gfwt), fresh root weight (root grams fresh weight, root gfwt), leaf dry weight (leaf grams dry weight, leaf gdwt), and root dry weight (root grams dry weight, root gdwt) were measured.

[4] = individual cotton (ST474) plants 1-8, DCSA 1 lb/A 24 hrs before RKN eggs, 45 days after inoculation

O=C(O)c1c(Cl)ccc(Cl)c1O [DCSA, 3,6-dichloro salicylic acid]
ozone damage symptoms (soybean plants [1]; high ozone rate 770 ppm, control lower leaves visibly damaged): did not show any lower leaf damage
ozone damage symptoms (soybean plants [1]; low ozone rate 2.8 ppm, controls also without symptoms): no symptoms were observed
germination rating (soybean seeds; soybean Variety 1, 1 μM DCSA, 1DAT, 22° C.): 1
germination rating (soybean seeds; soybean Variety 1, 1 μM DCSA, 2DAT, 22° C.): 3
germination rating (soybean seeds; soybean Variety 1, 1 μM DCSA, 4 DAT, 15° C.): 1
germination rating (soybean seeds; soybean Variety 1, 10 μM DCSA, 1DAT, 22° C.): 1
germination rating (soybean seeds; soybean Variety 1, 10 μM DCSA, 2DAT, 22° C.): 3
germination rating (soybean seeds; soybean Variety 1, 10 μM DCSA, 4 DAT, 15° C.): 3
germination rating (soybean seeds; soybean Variety 1, 100 μM DCSA, 1DAT, 22° C.): 3
germination rating (soybean seeds; soybean Variety 1, 100 μM DCSA, 2DAT, 22° C.): 3+
germination rating (soybean seeds; soybean Variety 1, 100 μM DCSA, 4 DAT, 15° C.): 3
germination rating (soybean seeds; soybean Variety 2, 1 μM DCSA, 1DAT, 22° C.): 2
germination rating (soybean seeds; soybean Variety 2, 1 μM DCSA, 2DAT, 22° C.): 3
germination rating (soybean seeds; soybean Variety 2, 1 μM DCSA, 4 DAT, 15° C.): 3
germination rating (soybean seeds; soybean Variety 2, 10 μM DCSA, 1DAT, 22° C.): 2
germination rating (soybean seeds; soybean Variety 2, 10 μM DCSA, 2DAT, 22° C.): 3
germination rating (soybean seeds; soybean Variety 2, 10 μM DCSA, 4 DAT, 15° C.): 3
germination rating (soybean seeds; soybean Variety 2, 100 μM DCSA, 1DAT, 22° C.): 3
germination rating (soybean seeds; soybean Variety 2, 100 μM DCSA, 2DAT, 22° C.): 3+
germination rating (soybean seeds; soybean Variety 2, 100 μM DCSA, 4 DAT, 15° C.): 3
germination rating (soybean seeds; soybean Variety 3, 1 μM DCSA, 1DAT, 22° C.): 2
germination rating (soybean seeds; soybean Variety 3, 1 μM DCSA, 2DAT, 22° C.): 2
germination rating (soybean seeds; soybean Variety 3, 1 μM DCSA, 4 DAT, 15° C.): 3
germination rating (soybean seeds; soybean Variety 3, 10 μM DCSA, 1DAT, 22° C.): 2
germination rating (soybean seeds; soybean Variety 3, 10 μM DCSA, 2DAT, 22° C.): 3
germination rating (soybean seeds; soybean Variety 3, 10 μM DCSA, 4 DAT, 15° C.): 2
germination rating (soybean seeds; soybean Variety 3, 100 μM DCSA, 1DAT, 22° C.): 1
germination rating (soybean seeds; soybean Variety 3, 100 μM DCSA, 2DAT, 22° C.): 3
germination rating (soybean seeds; soybean Variety 3, 100 μM DCSA, 4 DAT, 15° C.): 1
Egg Count/pot (Meloidogyne incognita; [4]): 8,160 and 9,120 and 5,200 and 3,720 and 3,360 and 3,040 and 1,800 and 2,200
Plant Height (cm) (Meloidogyne incognita; [4]): 25.4 cm (3×) and 22.2 cm and 17.8 cm and 14.0 cm and 15.9 cm and 12.7 cm
RKN Gall Rating (0-5) (Meloidogyne incognita; individual plants 1-8, 0=no visible galling, 5=heavy galling, 45 days after inoculation): 0 (4×) and 2 and 1 (3×)
RKN Gall Rating (0-5), Mean (Meloidogyne incognita; mean of 8 plants, RKN alone 2.6): 0.6
Plant Height (cm), Mean (Meloidogyne incognita; mean of 8 plants, RKN alone 16.9): 19.8 cm
bacterial blight symptoms [2]: only localized lesions (HR response) and no increase in bacterial blight symptoms
average drought rating (soybean plants [3]; soybean Variety 1, 0.5 lb/A DCSA, 2DAT, scale 1 no symptoms - 4 dead, surfactant 2): 2.25
average drought rating (soybean plants [3]; soybean Variety 1, 0.5 lb/A DCSA, 3DAT fb rehydration, scale 1-4, surfactant 3.25): 3.75
average drought rating (soybean plants [3]; soybean Variety 1, 0.5 lb/A DCSA, 3DAT, scale 1-4, surfactant 3.5): 4
average drought rating (soybean plants [3]; soybean Variety 1, 1.0 lb/A DCSA, 2DAT, scale 1-4, surfactant 2): 1.75
average drought rating (soybean plants [3]; soybean Variety 1, 1.0 lb/A DCSA, 3DAT fb rehydration, scale 1-4, surfactant 3.25): 3.5
average drought rating (soybean plants [3]; soybean Variety 1, 1.0 lb/A DCSA, 3DAT, scale 1-4, surfactant 3.5): 3.75
average drought rating (soybean plants [3]; soybean Variety 2, 0.5 lb/A DCSA, 2DAT, scale 1 no symptoms - 4 dead, surfactant 1.5): 1
average drought rating (soybean plants [3]; soybean Variety 2, 0.5 lb/A DCSA, 3DAT fb rehydration, scale 1-4, surfactant 3): 2.5
average drought rating (soybean plants [3]; soybean Variety 2, 0.5 lb/A DCSA, 3DAT, scale 1-4, surfactant 3.5): 2.5
average drought rating (soybean plants [3]; soybean Variety 2, 1.0 lb/A DCSA, 2DAT, scale 1-4, surfactant 1.5): 1.25
average drought rating (soybean plants [3]; soybean Variety 2, 1.0 lb/A DCSA, 3DAT fb rehydration, scale 1-4, surfactant 3): 2.5
average drought rating (soybean plants [3]; soybean Variety 2, 1.0 lb/A DCSA, 3DAT, scale 1-4, surfactant 3.5): 2.5
Root gdwt (soybean plants [3]; 0.5 lb/A DCSA): 1.25 g
Leaf gdwt (soybean plants [3]; 0.5 lb/A DCSA): 1.43 g
Leaf gfwt (soybean plants [3]; 0.5 lb/A DCSA): 9.45 g
Root gfwt (soybean plants [3]; 0.5 lb/A DCSA): 13.74 g
Root gdwt (soybean plants [3]; 1.0 lb/A DCSA): 1.34 g
Leaf gdwt (soybean plants [3]; 1.0 lb/A DCSA): 2.20 g
Leaf gfwt (soybean plants [3]; 1.0 lb/A DCSA): 13.94 g
Root gfwt (soybean plants [3]; 1.0 lb/A DCSA): 15.40 g
